“And” between values parts separate entries of the source, which are not always exact repeats. Identical values can stand only once.
System: placental gene expression
Test: Placental gene expression (Affymetrix Rat Genome Chip 230.2) after SSRI (fluoxetine) exposure throughout gestation
Format: in vivo
Settings: placenta
Experimental: Gene expression data from pregnant rats under different forms of dietary restriction was gathered. […] (N=8) • Group 2 (CR50): Rats Given 50% of their Normal Daily Intake of Food. (N=5) • Group 3 (CR70): Rats Given 70% of their Normal Daily Intake of Food. […] (N=6) Placentas from the rats of each Group were harvested on Day 21 of gestation. RNA was extracted and gene expression was measured based on hybridization of RNA to Affymetrix Rat Genome Chips™ (230.2) (Affymetrix, Santa Clara, Calif.).
In order to determine whether placental gene expression profiling can be used to identify other prenatal exposures such as toxicants and drugs, a group of rats with drug exposure was monitored as described above. […] As with control, CR50, CR70, and HF groups, placentas from the mothers were sampled after 21 days of gestation and gene expression monitored utilizing an Affymetrix Rat Genome Chip.

[1] = SSRI exposure during gestation, each SSRI column = one sample

## CNCCC(Oc1ccc(C(F)(F)F)cc1)c1ccccc1 (stereo not shown) [fluoxetine, Fluoxetine]
[1]
  Probeset 1383329_at expression value: 5.299 and 5.567 and 5.281 (2×) and 5.561 and 5.339
  Probeset 1384137_at expression value: 3.89 and 3.899
  Probeset 1384367_at expression value: 5.152 and 5.5769 and 5.098 and 5.103 and 5.137 and 5.449
  Probeset 1384573_at expression value: 9.396 and 9.335 and 9.669 and 9.82 and 10.3 and 9.808
  Probeset 1385074_at expression value: 6.094 and 5.703 and 6.069 and 5.946 and 6.214 and 6.404
  Probeset 1385290_at expression value: 5.664 (2×) and 5.339 and 5.511 and 5.599 and 5.438
  Probeset 1385386_at expression value: 4.05 and 4.2 and 4.368 and 4.404 and 4.111 and 4.351
  Probeset 1385391_at expression value: 5.218 and 4.757 and 4.618
  Probeset 1385790_at expression value: 8.262 and 8.645 and 8.217 and 8.093 and 8.254 and 8.458
  Probeset 1387693_a_at expression value: 4.775 and 5.713 and 5.222 and 5.079 and 4.944 and 5.129
  Probeset 1387694_at expression value: 5.039 and 4.874 and 4.919 and 4.933 and 5.073 and 4.691
  Probeset 1387822_at expression value: 5.838 and 6.319 and 5.874 and 5.79 and 5.5082 and 5.909
  Probeset 1387836_at expression value: 6.664 and 6.515 and 7.321 and 7.12 and 6.632 and 6.906
  Probeset 1387914_at expression value: 7.456 and 7.375 and 7.641 and 7.405 and 7.42 and 7.231
  Probeset 1388131_at expression value: 5.482 and 5.724 and 5.628 and 5.313 and 5.378 and 5.32
  Probeset 1388363_at expression value: 8.48 and 8.558 and 9.033 and 9.198 and 8.642 and 9.018
  Probeset 1388669_at expression value: 7.943 and 7.729 and 8.56 and 8.668 and 8.519 and 8.408
  Probeset 1389213_at expression value: 7.554 and 7.674 and 7.18 and 7.082 and 7.285 and 7.531
  Probeset 1389599_at expression value: 6.535 and 6.776 and 5.918 and 6.015 and 6.327 and 6.205
  Probeset 1390406_at expression value: 10.62 (2×) and 11.01 and 10.93 and 11.3 and 11.1
  Probeset 1390477_at expression value: 5.088 and 5.213 and 4.637 and 4.864 and 4.99 and 4.712
  Probeset 1390592_at expression value: 9.083 and 9.085 and 9.028 and 9.301
  Probeset 1391283_at expression value: 5.168 and 5.671 and 5.216 and 5.355 and 5.486 and 5.461
  Probeset 1391509_at expression value: 7.81 and 8.329 and 7.825 and 7.918 and 8.117 and 8.184
  Probeset 1391678_at expression value: 6.728 and 7.03 and 6.037 and 5.684 and 5.954 and 6.264
  Probeset 1391962_at expression value: 4.079 and 4.011 and 3.937 and 4.018 and 4.024 and 3.918
  Probeset 1393428_at expression value: 6.698 and 6.377 and 7.114 and 7.29 and 7.299 and 6.755
  Probeset 1393438_at expression value: 5.068 and 5.185 and 5.0534 and 5.206 and 4.959 and 5.153
  Probeset 1394343_s_at expression value: 3.666 and 3.629 and 3.872 and 3.785 and 3.852 and 3.841
  Probeset 1394383_at expression value: 5.713 and 6.062 and 5.324 and 5.199 and 5.6 and 5.247
  Probeset 1394887_x_at expression value: 4.063 and 4.143 and 3.656 and 3.536 and 3.475 and 3.919
  Probeset 1395817_at expression value: 6.714 and 6.49 and 6.649
  Probeset 1396130_at expression value: 3.756 and 3.764 and 3.744 and 3.847 and 3.746 and 3.741
  Probeset 1397268_at expression value: 4.565 and 5.072 and 4.482 and 4.73 and 4.645 and 4.567
  Probeset 1397587_at expression value: 6.561 and 6.659 and 6.326 and 6.196 and 6.181 and 6.179
  Probeset 1397934_at expression value: 8.072 and 8.118 and 7.76 and 7.912 and 7.673 and 7.856
  Probeset 1398136_at expression value: 4.139 and 4.205 and 4.178 and 4.175 and 4.278 and 4.212
  Probeset 1398486_at expression value: 5.62 and 5.739 and 6.477 and 7.05 and 7.673 and 6.597
  Probeset 1398949_at expression value: 9.031 and 8.874 and 9.095 and 9.297 and 9.003 and 9.17
SSRI-exposed samples
  expression, probeset 368199_at: 8.586 and 8.944 and 9.045 and 9.265 and 9.277 and 9.377
  expression, probeset 1367489_at: 7.839 and 8.052 and 7.771 and 7.614 and 7.86 and 7.738
  expression, probeset 1367856_at: 9.745 and 9.797 and 10.22 and 10.51 and 10.38 and 10.14
  expression, probeset 1367866_at: 5.591 and 5.571
  expression, probeset 1367877_at: 9.4471 and 9.923 and 9.622 and 8.883 and 9.902 and 8.73
  expression, probeset 1367978_at: 5.914 and 6.324 and 5.574 and 5.778 and 5.944 and 5.842
  expression, probeset 1368083_at: 8.501 and 8.375 and 9.053 and 8.928 and 9.103 and 8.728
  expression, probeset 1368397_at: 3.806 and 3.897 and 3.87 and 3.843 and 3.78 and 3.762
  expression, probeset 1368542_at: 6.355 and 7.586 and 6.712 and 6.347 and 6.563 and 7.001
  expression, probeset 1368646_at: 5.644 and 5.882 and 5.515 and 5.483 and 5.352 and 5.292
